The test system of one experiment is pulmonary Clara cells. The experiment can be described thus: Naphthalene lung injury model, ablation of Clara cells. It is filed as in vivo, mouse. To be noted: naphthalene alone, C57BL mice. Here is the method:
For lung injury studies, mice were given an intraperitoneal injection of naphthalene (NA) (more than 99% pure; Sigma-Aldrich), dissolved in corn oil, 200 mg per kg body weight, 40-48 hours before transplantation of embryonic lung tissue. To that end, these cells were initially evaluated in a model based on injury induction with naphthalene, as previously described [[…] et al, American Journal of Physiology-Lung Cellular and Molecular Physiology. (1995) 269(6):791]. This lung injury model mimics lung diseases caused by mild epithelial injury, detectable by changes in the expression of pulmonary Clara cells. The particular anatomical localization of Clara cells in respiratory bronchioles and in broncho-alveolar junctions enabled to accurately localize the site of injury after naphthalene exposure, and to test the ability of a single cell suspension of embryonic “window” cells to colonize and restore the injured epithelial layer in syngeneic recipients.

In experiment [1] the test system is C57BL/6 mice, recipient lungs. The experiment can be described thus: Assessment of GFP+ foci in chimeric lungs by morphometry after different conditioning regimens. It is filed as in vivo, mouse. As to conditions: for engraftment / lung chimerism of donor-derived cells: conditioning with NA alone, 1×10^6 E16 lung cells 2 days after NA; for donor-derived foci: E16 lung cells. Here is the method:
For lung injury studies, mice were given an intraperitoneal injection of naphthalene (NA) (more than 99% pure; Sigma-Aldrich), dissolved in corn oil, 200 mg per kg body weight, 40-48 hours before transplantation of embryonic lung tissue. For ‘double’ lung injury, naphthalene-treated animals were further irradiated in a cesium irradiator (Gammacell 40), (40-48 hours after naphthalene administration). C57BL/6, tdTomato (Gt(ROSA)26Sortm4(ACTB-tdTomato,-EGFP)Luo/J mice, and Rag1^−/− mice were irradiated with 6 Gy TBI, and NOD-SCID mice were irradiated 3-4 Gy TBI. Following conditioning with NA, TBI, or both, C57BL/6 mice were transplanted with 1×10^6 GFP-positive E15-E16 embryonic lung cells injected into the tail vein 4-8 hours following irradiation. Lungs were fixed with a 4% PFA solution introduced through the trachea under a constant pressure of 20 cm H2O. Then the lungs were immersed in fixative overnight at 4° C. Lungs were processed after PFA treatment and fixed in 30% sucrose and frozen in Optimal Cutting Temperature (OCT) compound (Sakura Finetek USA, Inc. Tissue-Tek). Serial step sections, 12 μm in thickness, were taken along the longitudinal axis of the lobe. The fixed distance between the sections was calculated so as to allow systematic sampling of at least 20 sections across the whole lung. Lung slices were analyzed by fluorescence microscopy. The actual number of GFP^+ foci (a group of more than 5 distinct GFP^+ cells was defined as a single patch) was counted per slice using Image Pro software. The area of each slice was estimated by Image Pro software, and the average area of slices and average frequency of GFP^+ patches in all the slices were assessed (patch(P)/Area(A) (mm2)), assuming that the frequency per area in a large number of slices reflects distribution per volume.

The test system of experiment [2] is endogenous lung progenitors. The experiment is described as follows: BrdU incorporation assay (lung cell proliferation in vivo). Also on record: species or system mouse. Here is the method:
Lung cell proliferation was measured in vivo by BrdU uptake. Briefly, control and four groups of experimental mice (7 days following naphthalene administration and 5 days after TBI) received a single dose of BrdU (Sigma) intraperitoneally 120 minutes before sacrifice (at a dose of 50 mg per kg of body weight). Lungs were excised, left lungs were enzymatically digested (using the same protocol as for embryonic tissue dissociation) for polychromatic FACS analysis, and right lungs were fixed with 4% PFA and processed for further immunofluorescence staining. Multiple serial slices were costained with anti-BrdU-FITC and anti-CCSP or anti-SPC antibodies. All FACS and immunohistochemical studies were done using the BrdU flow kit (BD Biosciences), according to the manufacturer's instructions. For morphometric analysis of CCSP^+BrdU^+ and SPC^+BrdU^+ cells, images were stained with anti-CCSP and anti-BrdU or anti-SPC and anti-BrdU antibodies and nuclei counterstained with Hoechst dye. The images were acquired by an observer blinded to the treatment groups, using an Olympus fluorescent microscope and Olympus digital camera (DP70) with a ×40 objective. At least 20 different stained random fields were counted for each marker.

Consider `c1ccc2ccccc2c1` [naphthalene], for which the “ablation of Clara cells” value in the experiment on pulmonary Clara cells is “transient”. In addition, the “GFP positive patches (engraftment of donor-derived cells)” value in experiment [1] (NA and 6 Gy TBI vs TBI alone or NA alone, 30 days post transplant) was “markedly enhanced”. Moreover, the “engraftment / lung chimerism of donor-derived cells” value in experiment [1] was “could not enable significant engraftment”; in experiment [1] (listed as NA), “failed to attain a detectable level of lung chimerism”. Moreover, the donor-derived foci is 10-12 foci/mm^3 in experiment [1] (conditioning with naphthalene alone, 30 days post transplant); 55 foci/mm^3 in experiment [1] (conditioning with naphthalene and 6 Gy TBI, 30 days post transplant). Besides, in experiment [2] (6 Gy TBI 48 hrs after NA treatment), the endogenous cell recovery entry is “inhibited”. Moreover, the “level of BrdU+ cells within endothelial, epithelial and mesenchymal lineages (FACS)” value in experiment [2] (6 Gy TBI administered 48 hrs after NA) was “significantly reduced”. Also, the “ablation of endogenous pool of progenitors” value in experiment [2] (6 Gy TBI prior to NA treatment) is “did not effectively ablate the endogenous pool of progenitors”. Also, the “endogenous BrdU+ proliferating cells” value in experiment [2] (NA alone, no transplantation) is reported as “marked signal of endogenous BrdU^+ proliferating cells”.

These data come from US10668109B2, “Conditioning protocols and use of same for tissue regeneration” (Yeda Research and Development Co. Ltd., priority 2015, dated 2020).
